# Biological target: T1, Butyrylcholinesterase (Rattus norvegicus, UniProt Q9JKC1)
# Experiment: In vitro inhibitory concentration against butyrylcholinesterase (BuChE) obtained from rat plasma
# Format: cell-free
# T1 sequence (Q9JKC1 whole entry): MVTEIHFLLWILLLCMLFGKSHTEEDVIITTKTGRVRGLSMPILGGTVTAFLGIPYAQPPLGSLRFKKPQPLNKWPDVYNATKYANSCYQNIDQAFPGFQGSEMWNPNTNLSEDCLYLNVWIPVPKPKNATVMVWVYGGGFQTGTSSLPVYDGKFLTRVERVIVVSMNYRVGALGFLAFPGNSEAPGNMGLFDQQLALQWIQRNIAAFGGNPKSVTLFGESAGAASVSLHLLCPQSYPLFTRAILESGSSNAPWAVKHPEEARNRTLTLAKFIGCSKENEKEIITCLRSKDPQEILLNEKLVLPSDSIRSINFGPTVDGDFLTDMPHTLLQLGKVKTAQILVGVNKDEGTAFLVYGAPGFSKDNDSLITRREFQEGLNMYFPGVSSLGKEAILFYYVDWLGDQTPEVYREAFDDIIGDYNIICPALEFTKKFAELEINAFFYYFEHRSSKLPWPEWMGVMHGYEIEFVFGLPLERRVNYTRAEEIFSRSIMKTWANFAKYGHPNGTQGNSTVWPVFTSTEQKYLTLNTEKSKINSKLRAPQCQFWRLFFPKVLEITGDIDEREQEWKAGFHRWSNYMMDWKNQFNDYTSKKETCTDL
row,SMILES,IC50 [nM]
1,CNC(=O)Oc1ccc2c(c1)[C@]1(C)CCN(C)[C@@H]1N2C [PHYSOSTIGMINE],8.1

# Biological target: T1, Butyrylcholinesterase
# Experiment: not given
row,SMILES,IC50 [nM]
1,O=C(Nc1ccc2c(c1)C(=O)N(CCC1CCN(Cc3ccccc3)CC1)C2=O)c1ccccc1,42300

# Biological target: T2, Acetylcholinesterase (Mus musculus, UniProt P21836)
# T2 sequence (P21836 whole entry): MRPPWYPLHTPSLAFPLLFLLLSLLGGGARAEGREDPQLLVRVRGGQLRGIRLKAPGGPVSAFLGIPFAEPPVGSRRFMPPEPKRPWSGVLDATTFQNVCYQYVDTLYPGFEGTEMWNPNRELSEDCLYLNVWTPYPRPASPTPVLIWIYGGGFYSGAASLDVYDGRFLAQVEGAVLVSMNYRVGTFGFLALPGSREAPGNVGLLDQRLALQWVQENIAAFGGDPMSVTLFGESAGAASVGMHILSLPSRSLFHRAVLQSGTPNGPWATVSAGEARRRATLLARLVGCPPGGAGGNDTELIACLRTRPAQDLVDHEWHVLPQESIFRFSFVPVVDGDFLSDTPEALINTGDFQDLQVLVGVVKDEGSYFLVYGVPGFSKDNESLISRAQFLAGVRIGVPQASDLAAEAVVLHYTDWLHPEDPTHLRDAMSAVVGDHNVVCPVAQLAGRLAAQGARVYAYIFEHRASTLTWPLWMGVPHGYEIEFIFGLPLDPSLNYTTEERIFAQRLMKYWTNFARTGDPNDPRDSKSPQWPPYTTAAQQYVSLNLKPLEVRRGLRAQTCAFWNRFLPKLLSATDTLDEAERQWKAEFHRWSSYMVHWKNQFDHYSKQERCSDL
# Experiment: biochemical
# Description: In vitro inhibitory concentration against acetylcholinesterase (AChE) obtained from mouse brain homogenate.
row,SMILES,IC50 [nM]
1,O=C1c2ccc([N+](=O)[O-])cc2C(=O)N1CCC1CCN(Cc2ccccc2)CC1,12.5
2,O=C1c2ccccc2C(=O)N1CCC1CCN(Cc2ccccc2)CC1,30
3,O=C1c2ccc([N+](=O)[O-])cc2C(=O)N1CCC1CCN(Cc2ccc(Cl)cc2)CC1,240
4,CC(=O)N(C)CCC1CCN(Cc2ccccc2)CC1,660
5,O=C(c1ccc([N+](=O)[O-])cc1)N(CCC1CCN(Cc2ccccc2)CC1)c1ccccc1,5.4
6,COc1cccc(N(CCC2CCN(Cc3ccccc3)CC2)C(C)=O)c1,46
7,O=C(Nc1ccc2c(c1)C(=O)N(CCC1CCN(Cc3ccccc3)CC1)C2=O)c1ccccc1,1.2
8,Nc1cccc2c1C(=O)N(CCC1CCN(Cc3ccccc3)CC1)C2=O,11
9,O=c1c2ccccc2ncn1CCC1CCN(Cc2ccccc2)CC1,1200
10,O=C(C1CCCCC1)N(CCC1CCN(Cc2ccccc2)CC1)c1ccccc1,9400
11,CN1CCC(CCN2C(=O)c3ccc([N+](=O)[O-])cc3C2=O)CC1,6800
12,O=C1Cc2ccccc2C(=O)N1CCC1CCN(Cc2ccccc2)CC1,23
13,CC(=O)N(CCC1CCN(Cc2ccccc2)CC1)c1cccc(F)c1,65
14,O=c1c2ccccc2ccn1CCC1CCN(Cc2ccccc2)CC1,1100
15,CC(=O)N(CCC1CCN(Cc2ccccc2)CC1)c1ccncc1,108
16,O=C1CCCCN1CCC1CCN(Cc2ccccc2)CC1,270
17,O=C(Nc1cccc2c1C(=O)N(CCC1CCN(Cc3ccccc3)CC1)C2=O)c1ccccc1,340
18,COc1ccc(N(CCC2CCN(Cc3ccccc3)CC2)C(C)=O)cc1,700
19,CCC(=O)N(CCC1CCN(Cc2ccccc2)CC1)c1ccccc1,830
20,COc1ccc(C(=O)N(CCC2CCN(Cc3ccccc3)CC2)c2ccccc2)cc1,590
21,c1ccc(CN2CCC(CCN3CCc4ccccc4C3)CC2)cc1,1600
22,O=C1c2ccc([N+](=O)[O-])cc2C(=O)N1CC1CCN(Cc2ccccc2)CC1,3000
23,O=C1c2ccccc2CN1CCC1CCN(Cc2ccccc2)CC1,98
24,COc1ccc(CN2CCC(CCN3C(=O)c4ccc([N+](=O)[O-])cc4C3=O)CC2)cc1,440
25,CC(=O)N(CCC1CCN(Cc2ccccc2)CC1)c1ccc(F)cc1,205
26,O=C1c2ccc([N+](=O)[O-])cc2C(=O)N1C1CCN(Cc2ccccc2)CC1,27000
27,CN(CCC1CCN(Cc2ccccc2)CC1)C(=O)c1ccc(S(=O)(=O)Cc2ccccc2)cc1,0.56
28,CNC(=O)Oc1ccc2c(c1)[C@]1(C)CCN(C)[C@@H]1N2C [PHYSOSTIGMINE],0.69

# Reference: ChEMBL document CHEMBL1126101, “Synthesis and structure-activity relationships of acetylcholinesterase inhibitors: 1-benzyl-4-(2-phthalimidoethyl)piperidine and related derivatives” (J Med Chem, 1992)
